The values below are quoted from earlier work in US9371263B2, “Protective effects of curcumin against hemorrhagic stroke injury” (Augusta University Research Institute, Inc., priority 2013, dated 2016).

For the data set the following is noted: humans, oral administration.

Regarding `COc1cc(/C=C/C(=O)CC(=O)/C=C/c2ccc(O)c(OC)c2)ccc1O` [curcumin, diferuloylmethane], the systemic bioavailability entry is given as “relatively low”.
